Experimental data reported in patent US20160272709A1, “ANTI-KIR ANTIBODIES” (The Regents of the University of Michigan, priority 2015, published 2016).

Legend:
[1] = lupus patients; cited from earlier work
CD4^+KIR^+NK1.1^− cells [2] = experiment: Flow cytometry (6G10) of KIR on murine T cells treated with 5-azaC; type: cell-based
KIRL1 mRNA = KIRL1 mRNA relative to GAPDH by RT-PCR in CD4+ T cells from 5-azaC treated splenocytes; type: cell-based, murine; settings: ConA-stimulated splenocytes, n=4, p=0.038
Description: FIGS. 2A-B. (A) Murine splenocytes were stimulated with […], treated or not with 5-azaC, then KirL1 mRNA was measured in CD4^+ T cells relative to GAPDH by RT-PCR. (B) Double transgenic mice were given Dox or not in their drinking water, then KirL1 mRNA measured in CD4+ splenocytes as in panel A.
(§1) To test if the mouse T cell KIR genes are also activated by DNA methylation inhibition, murine splenocytes were stimulated with ConA, treated with 5-azaC, and KIRL1 mRNA measured relative to GAPDH by RT-PCR in CD4+ T cells bead purified by negative selection to remove NK and other non-CD4+ T cells.

CD3^+CD4^+CD28^+ T cells = experiment: KIR and CD11a expression on PHA-stimulated, 5-azaC treated PBMC (flow cytometry); type: cell-based, human
Description: FIGS. 11A-D. 5-Azacytidine treatment of PHA-stimulated PBMC induces the expression of KIR proteins on a subset of CD4^+CD28^+CD11a^hi T cells. PBMC were stimulated for 18-24 hrs with PHA followed by treatment with 2.5 μM 5-azacytidine or saline for 72 hrs. The cells were then stained with fluorochrome-conjugated antibodies to methylation-sensitive gene products, fixed and analyzed by flow cytometry as described in Methods. Gating was established to select CD3^+CD4^+CD28^+ T cells. The CD3^+CD4^+CD28^+ T cells were then analyzed for CD11a and KIR using a cocktail of 5 PE-conjugated anti-KIR antibodies and imaged on a FACS Synergy flow cytometer. (A), Untreated T cells. (B), 5-azaC treated T cells. (C), 5-azaC treated PBMC stained only with the cocktail of anti-KIR antibodies. (D), 5-azaC treated T cells stained with antibodies to CD3, CD4, CD28, CD11a, CD70 and CD40L but not KIR. The figure shown is representative of 9 separate cultures.
The expression of methylation-sensitive genes was analyzed in 5-azaC treated cells from healthy women. PBMCs from a healthy […] were stimulated with PHA then cultured with or without 5-azaC. Seventy-two hours later the cells were washed, stained with fluorochromeconjugated antibodies to CD3, CD4, CD28, CD11a, CD70 and CD40L with and without a “cocktail” of PE conjugated antibodies to 5 distinct KIR proteins then analyzed by flow cytometry as outlined in FIG. 10. […]
In the absence of treatment with the demethylating agent 5-azaC very few KIR+ cells were observed (FIG. 11A). […] Further, CD11a expression on the majority (>70%) of the KIR^+CD3^+CD4^+CD28^+ cells treated with 5-azaC (FIG. 11B, rectangle) was nearly twice that of the corresponding KIR− T cells (FIG. 11B, circle) from the same cultures (median fluorescence intensity 2298+/−748 SD, versus 1394+/−572, respectively, n=9 analyzed in 7 different experiments, p<0.001). […]

CD4^+KIR^+NK1.1^− cells [3] = experiment: Flow cytometry (6G10) of KIR on CD4+ splenocytes of tet-on dnMEK transgenic mice receiving dox; type: in vivo
Description: FIGS. 3A-B.) Double transgenic mice were given Dox (B) or not (A) in their drinking water, then KirL1 expression was measured on CD4+ splenocytes by flow cytometry.
as §1

[4] = system: CD4^+KIRL1^+CD11a^hiCD40L^+ subset; experiment: Multicolor flow cytometry of splenocytes of SJL mice given dox for 6 weeks; type: in vivo; settings: dox 6 weeks; controls 0.007%
From the text: SJL mice were given dox for 6 weeks, sacrificed, then splenocytes stained with Pacific Blue-CD3; FITC-CD8; PE-CD40L; PE-Cy5-CD4; Avidin-APC-Cy7/biotin-KIRL1; PERCP-Cy5.5-CD11a. Mice receiving dox developed a CD4^+KIRL1^+CD11a^hiCD40L^+ subset that resembles the human lupus subset shown in FIG. 1, and represented 1.09% of the total CD11a+ cells, while controls had only 0.007% CD4^+KIRL1^+CD11a^hiCD40L^+ cells.

CC(=O)N[C@@H](CS)C(=O)O [N-acetylcysteine]
flare severity [1]: decreases flare severity

Nc1ncn([C@@H]2O[C@H](CO)[C@@H](O)[C@H]2O)c(=O)n1 [5-azaC, 5-azacytidine]
increase in CD4^+KIR^+NK1.1^− cells (CD4^+KIR^+NK1.1^− cells [2]): 3.1 fold
KIRL1 mRNA relative to GAPDH (KIRL1 mRNA): overexpressed KIRL1 mRNA
numbers of KIR+ cells (CD3^+CD4^+CD28^+ T cells; 2.5 μM 5-azaC 72 hrs after PHA): increases the numbers of KIR+ cells
CD11a median fluorescence intensity on KIR^+CD3^+CD4^+CD28^+ cells (CD3^+CD4^+CD28^+ T cells; 5-azaC treated cultures, SD, n=9, p<0.001 vs KIR− cells): 2298+/−748
CD11a median fluorescence intensity on corresponding KIR− T cells (CD3^+CD4^+CD28^+ T cells; same 5-azaC treated cultures, SD, n=9): 1394+/−572

C[C@H]1c2cccc(O)c2C(=O)C2=C(O)[C@]3(O)C(=O)C(C(N)=O)=C(O)[C@@H](N(C)C)[C@@H]3[C@@H](O)[C@@H]21 [dox, doxycycline]
KIR expression, % of total CD4+ T cells (CD4^+KIR^+NK1.1^− cells [3]; tet-on mouse with higher KIR expression, FIGS. 3A-B): 3.9%
increase in CD4^+KIR^+NK1.1^− cells (CD4^+KIR^+NK1.1^− cells [3]; transgenic mice receiving dox): 5.7 fold
CD4^+KIRL1^+CD11a^hiCD40L^+ subset, % of total CD11a+ cells [4]: 1.09%
